# Assay results: patent US20100137344A1, “INDUCTION OF ANALGESIA IN NEUROPATHIC PAIN” (University Court of the University of Edinburgh, priority 2006, published 2010)
# Columns and labels:
# Assay type in all cases: in vivo, rat
# naïve rats = assay: Topical application to paws of naïve rats, behavioural reflex testing (PWL, PWT); conditions: Naïve
# Procedure: Thermal sensitivity was assessed by measuring paw withdrawal latency (PWL, s) in response to a noxious thermal stimulus (Hargreaves' thermal stimulator, Linton Instrumentation, Diss, UK) directed to the hindpaw mid-plantar glabrous surface. Mechanical sensitivity was recorded as the paw withdrawal threshold (PWT, mN/mm^2) to calibrated von Frey filaments (Stoelting, Ill., US), as previously described^[39]. Sensitivity to noxious cold was assessed by placing animals in a waterbath with an aluminium floor containing 1 cm deep 4° C. water and counting the time the paw was held suspended over a 20 s period.
# Icilin was applied at concentrations of 2.5-500 μM (in water with 0.2% DMF), by placing CCI or naïve rats unrestrained for 5 min in a 1 cm deep waterbath (sufficient to cover paws), which was thermostatically controlled to a temperature of 30° C., or by very lightly anaesthetising rats and immersing hindpaws in small tubes containing 5 ml icilin (500 μM-5 mM, with a vehicle of 45% dimethylformamide in 0.2% aqueous Tween 80) for 5 min, followed by sensory testing for 60-80 mins. The effects of (−)-menthol and its stereoisomers isomenthol (1S,2R,5R-menthol,) and (+)-menthol (1S,2R,5S(+)-menthol) (4-16 mM in 80% ethanol) were also assessed. Relevant vehicles were always assessed in similar experiments. As a contrast, the effect of cinnamaldehyde (1.5 mM in water) and the effect of cinnamaldehyde with additional icilin (80 μM in water with 0.2% DMF) were assessed in naïve animals. The effects of icilin (80 μM) were further assessed in CCI animals that had undergone antisense and mis-sense treatment for knockdown of TRPM8 or immediately following intrathecal injection of either LY 341495 or UBP 1112. […] The effects of brief paw immersion at different temperatures (10-22° C. for 5 min) on CCI rats were assessed by mechanical testing. The effects of intrathecal LY 341495 or UBP 1112 on the reversal of ipsilateral sensitisation in CCI following a 16° C. cool challenge for 5 min were measured. Reflex testing commenced 5 minutes following challenge, unless animals had been anaesthetised, in which case 15 minutes was allowed for recovery. Six replicate animals were tested in all pharmacological experiments.
# dorsal horn neurons = assay: Extracellular recordings of single spinal dorsal horn neurons in CCI animals (brush-evoked firing); conditions: icilin 200 μM topical
# Procedure: Peripheral: Recordings of saphenous (sensory) nerve were made in naïve animals (n=7) to assess the effects of topical icilin on primary afferents. In addition, recordings were carried out on animals which had undergone TRPM8 antisense or mis-sense treatment beginning 4-5 days previously. Rats were anaesthetised (with 0.6 ml 25% urethane/100 g, i.p.) and the saphenous nerve was exposed and dissected from its associated vein and artery. Further dissection under liquid paraffin enabled identification of afferent preparations comprising a small number of fibres. The conduction velocity of single identified afferent fibres was determined using bipolar electrodes and the peripheral stimulus technique^[43]. Following isolation of preparations, icilin (200 μM in water with 0.2% DMF), (−)-menthol (4 mM in 25% ethanol) resiniferatoxin (1 mM in ethanol) or vehicle alone were applied to the hindlimb receptive fields and neuronal responses recorded using the Chart programme (version 3.6). Central: Recordings of spinal dorsal horn neurons were made in CCI animals, as described previously^[39]. Following halothane induction, the jugular vein and trachea were canulated and intravenous anaesthetic delivered: α-chloralose ([…], Fisher) and urethane ([…], Sigma), with small supplementary doses of α-chloralose as required throughout the experiment. Core body temperature was maintained at 37-38° C. by means of a thermostatically controlled heated blanket. The animal was placed in a stereotaxic frame, and the thoracolumbar spinal column was supported using three pairs of swan-necked clamps. A laminectomy was performed at L2-L5, and agar (2% in saline at 37° C.) was delivered over exposed cord to increase mechanical stability. Above the recording region the agar and spinal cord dura were removed and liquid paraffin poured into the pool. Extracellular recordings were made from single multireceptive neurons in laminae I-IV through the centre barrel of a seven-barrelled glass microelectrode filled with 4M NaCl (tip-diameter […], DC resistance 5-8 MΩ). The receptive fields of hair-follicle innervated neurons on the distal hindlimb were identified by an innocuous brush stimulus^[39]. Icilin (200 μM in water with 0.2% DMF) was applied peripherally to the receptive field of individual recorded neurons, and the effect on neuronal response to a rotating brush was recorded and analysed using Spike2 programme (Version 3.2, CED). The Group III mGluR antagonist UBP 1112 (20 mM in water), pH 8.5, and control 1M NaCl, pH 8.5 were ionophoresed from the side barrels of the electrode using currents of between 20 nA and 80 nA (Neurophore BH2 ionophoresis system, Medical Systems, Great Neck, N.Y.) to measure effects on neuronal response to icilin.
# [1] = system: CCI model of neuropathic pain; assay: Cold allodynia in CCI model, Peltier controlled footplate; conditions: icilin 200 μM topical
# Procedure: In the CCI model of neuropathic pain, cold allodynia was assessed by scoring the number of paw flick-associated paw withdrawals from a Peltier controlled footplate that was reduced in temperature from control (30° C.) to mild cooling (20° C.). Icilin (200 μM) was applied topically (as in FIG. 1). Values are shown as means±SEM, ipsilateral (⋄) to nerve injury. † Indicates statistically significant reversal of cool allodynia.
# [2] = icilin 1000 μM applied to paw, 15 mins
# [3] = icilin 1000 μM applied to paw, 50 mins
# [4] = icilin 2500 μM applied to paw, 15 mins
# [5] = icilin 2500 μM applied to paw, 50 mins
# [6] = icilin 5000 μM applied to paw, 15 mins
# [7] = icilin 5000 μM applied to paw, 50 mins
compound,measurement,setting,value
"O=C1NC(c2cccc([N+](=O)[O-])c2)=CCN1c1ccccc1O [icilin, 1-(2′-hydroxyphenyl)-4-(3″-nitrophenyl)-1,2,3,6-tetrahydropyrimidin-2-one]",Mechanical PWT,naïve rats; [2],4830.6 ± 0.0 mN/mm^2
same,Thermal PWL,naïve rats; [2],15.1 ± 1.2 s
same,Mechanical PWT,naïve rats; [3],4830.6 ± 0.0 mN/mm^2
same,Thermal PWL,naïve rats; [3],14.8 ± 0.9 s
same,Mechanical PWT,naïve rats; [4],4830.6 ± 0.0 mN/mm^2
same,Thermal PWL,naïve rats; [4],14.9 ± 0.3 s
same,Mechanical PWT,naïve rats; [5],4830.6 ± 0.0 mN/mm^2
same,Thermal PWL,naïve rats; [5],13.2 ± 0.8 s
same,Mechanical PWT,naïve rats; [6],3828.6 ± 316.8 mN/mm^2
same,Thermal PWL,naïve rats; [6],15.3 ± 0.5 s
same,Mechanical PWT,naïve rats; [7],4830.6 ± 0.0 mN/mm^2
same,Thermal PWL,naïve rats; [7],13.1 ± 0.7 s
same,brush-induced responses of contralateral neurons,"dorsal horn neurons; contralateral, n=6",111.9±8.9 % of control
same,brush-induced responses,"dorsal horn neurons; ipsilateral to CCI, 8 neurons out of 12 affected",37.4±5.5%
same,"analgesia against cold allodynia (paw withdrawals, footplate 30° C. to 20° C.)",[1],provides analgesia against the cold allodynia
